Data published in patent US20240059703A1 (AMGEN INC., priority 2021, published 2024).

molecular target: KRAS G12C (Homo sapiens (Human), UniProt P01116, C118A/G12C); experiment: 2 h coupled exchange assay; assay type: biochemical; conditions: Avg 2 h Coupled exchange IC50, 2 h compound pre-incubation
Description: The term “2 h coupled exchange assay” or “20 h coupled exchange assay” as used herein refers to the assay described in the Section entitled “BIOLOGICAL EVALUATION.”

Chain of KRAS G12C (P01116 other isoform, or with tags, fused parts or gaps G12C/C118A): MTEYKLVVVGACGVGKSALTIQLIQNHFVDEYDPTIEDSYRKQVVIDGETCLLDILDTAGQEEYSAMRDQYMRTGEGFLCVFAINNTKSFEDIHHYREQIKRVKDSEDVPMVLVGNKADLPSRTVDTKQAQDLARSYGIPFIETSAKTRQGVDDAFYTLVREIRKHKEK

First: C=CC(=O)N1CC2(CCN(c3nc4c(c(-c5ncccc5F)c3C#N)CC[C@@H](c3scnc3C)C4)C2)C1 [Example 23-59, (7R)-4-(3-fluoro-2-pyridinyl)-7-(4-methyl-1,3-thiazol-5-yl)-2-(2-(2-propenoyl)-2,6-diazaspiro[3.4]octan-6-yl)-5,6,7,8-tetrahydro-3-quinolinecarbonitrile]
Second: C=CC(=O)N1CC2(CCN(c3nc4c(c(-c5[nH]c(=O)cc6ccccc56)c3C#N)CCC(C)(C)C4)C2)C1 [Example 33-2, 7,7-dimethyl-4-(3-oxo-2,3-dihydro-1-isoquinolinyl)-2-(2-(2-propenoyl)-2,6-diazaspiro[3.4]octan-6-yl)-5,6,7,8-tetrahydro-3-quinolinecarbonitrile]
The IC50 of the first is 4-fold lower: 164 nM for the first, 659 nM for the second. The first is the more potent here.

Compared with `C=CC(=O)N1CC2(CCN(c3nc4cc(-c5ccnn5C)ccc4c(-c4cc(O)c(F)cc4Cl)c3C)C2)C1` [Example 16-14, 1-(6-(4-(2-chloro-4-fluoro-5-hydroxyphenyl)-3-methyl-7-(1-methyl-1H-pyrazol-5-yl)-2-quinolinyl)-2,6-diazaspiro[3.4]octan-2-yl)-2-propen-1-one], `C=CC(=O)N1CC2(CCN(c3nc4cc(-c5ccnn5C)ccc4c(-c4c(C)cccc4F)c3C)C2)C1` [Example 16-8, 1-(6-(4-(2-fluoro-6-methylphenyl)-3-methyl-7-(1-methyl-1H-pyrazol-5-yl)-2-quinolinyl)-2,6-diazaspiro[3.4]octan-2-yl)-2-propen-1-one] is 1.9-fold higher in IC50: 373 nM for the first, 702 nM for the second. The first is the more potent here.

First: C=CC(=O)N1CC2(CCN(c3nc4c(c(-c5ccc(F)c6sc(N)nc56)c3C)COC(C)(C)C4)C2)C1 (single isomer, unassigned) [Example 14-39, (M)-1-(6-(4-(2-amino-7-fluoro-1,3-benzothiazol-4-yl)-3,7,7-trimethyl-7,8-dihydro-5H-pyrano[4,3-b]pyridin-2-yl)-2,6-diazaspiro[3.4]octan-2-yl)-2-propen-1-one]
Second: C=CC(=O)N1CC2(CCN(c3nc4c(c(-c5cc(O)cc6ccccc56)c3C)COC(C)(C)C4)C2)C1 (single isomer, unassigned) [Example 14-35, (P)-1-(6-(4-(3-hydroxy-1-naphthalenyl)-3,7,7-trimethyl-7,8-dihydro-5H-pyrano[4,3-b]pyridin-2-yl)-2,6-diazaspiro[3.4]octan-2-yl)-2-propen-1-one]
The IC50 of the first is 3.2-fold lower: 1770 nM for the first, 5620 nM for the second.

`C=CC(=O)N1CC2(CCN(c3nc4cc(-n5ccnc5C)ccc4c(-c4ccccc4Cl)c3C)C2)C1` [Example 15-4, 1-(6-(4-(2-chlorophenyl)-3-methyl-7-(2-methyl-1H-imidazol-1-yl)-2-quinolinyl)-2,6-diazaspiro[3.4]octan-2-yl)-2-propen-1-one] and `C=CC(=O)N1CC2(CCN(c3nc4c(c(-c5cc(O)ccc5C)c3F)COC(C)(C)C4)C2)C1` [Example 14-53, 1-(6-(3-fluoro-4-(5-hydroxy-2-methylphenyl)-7,7-dimethyl-7,8-dihydro-5H-pyrano[4,3-b]pyridin-2-yl)-2,6-diazaspiro[3.4]octan-2-yl)-2-propen-1-one] are within 1.5-fold of each other in IC50: 280 nM for the first, 360 nM for the second.

Work on `C=CC(=O)N1CC2(CCN(c3nc4c(c(-c5c(C)ccc6cnn(C)c56)c3F)COC(C)(C)C4)C2)C1` (single isomer, unassigned) [Example 14-101, (M)-1-(6-(4-(1,6-dimethyl-1H-indazol-7-yl)-3-fluoro-7,7-dimethyl-7,8-dihydro-5H-pyrano[4,3-b]pyridin-2-yl)-2,6-diazaspiro[3.4]octan-2-yl)-2-propen-1-one] yielded an IC50 of 301 nM.

same assay, conditions: Avg 2 h Coupled exchange IC50, 2 h compound pre-incubation, SOS-mediated nucleotide exchange

Going from `C=CC(=O)N1CC2(CCN(c3nc4c(c(-c5c(C)ccc6cnn(C)c56)c3Cl)COC(C)(C)C4)C2)C1` [Example 2-86, 1-(6-(3-chloro-4-(1,6-dimethyl-1H-indazol-7-yl)-7,7-dimethyl-7,8-dihydro-5H-pyrano[4,3-b]pyridin-2-yl)-2,6-diazaspiro[3.4]octan-2-yl)-2-propen-1-one] to `C=CC(=O)N1CC2(CCN(c3nc4c(c(-c5c(C)c(C)cc6cnn(C)c56)c3C#N)COC(C)(C)C4)C2)C1` (single isomer, unassigned) [Example 13-91, (M)-7,7-dimethyl-2-(2-(2-propenoyl)-2,6-diazaspiro[3.4]octan-6-yl)-4-(1,5,6-trimethyl-1H-indazol-7-yl)-7,8-dihydro-5H-pyrano[4,3-b]pyridine-3-carbonitrile], the IC50 rises from 6150 nM to 9270 nM (1.5-fold).

Going from `CN(C)C/C=C/C(=O)N1CC2(CCN(c3nc4c(c(-c5cc(O)cc6ccccc56)c3C#N)CC[C@@H]3C[C@H]43)C2)C1` (atropisomer, axis not shown; (P)) [Example 13-87, (P)-(6aR,7aS)-2-(2-((2E)-4-(dimethylamino)-2-butenoyl)-2,6-diazaspiro[3.4]octan-6-yl)-4-(3-hydroxy-1-naphthalenyl)-6,6a,7,7a-tetrahydro-5H-cyclopropa[h]quinoline-3-carbonitrile] to `C=CC(=O)N1CC2(CCN(c3nc4c(c(-c5cc(C)cc6ccccc56)c3C#N)COC(C)(C)C4)C2)C1` [Example 13-33, 7,7-dimethyl-4-(3-methyl-1-naphthalenyl)-2-(2-(2-propenoyl)-2,6-diazaspiro[3.4]octan-6-yl)-7,8-dihydro-5H-pyrano[4,3-b]pyridine-3-carbonitrile], the IC50 rises from 130 nM to 676 nM (5.2-fold).

`C=CC(=O)N1CC2(CCN(c3nc4c(c(-c5cc(O)ccc5Cl)c3C)COC(C)(C)C4)C2)C1` [Example 2-35, 1-(6-(4-(2-chloro-5-hydroxyphenyl)-3,7,7-trimethyl-7,8-dihydro-5H-pyrano[4,3-b]pyridin-2-yl)-2,6-diazaspiro[3.4]octan-2-yl)-2-propen-1-one] and `C=CC(=O)N1CC2(CCN(c3nc4c(c(-c5ccc(Cl)c6cc[nH]c56)c3C#N)COC(C)(C)C4)C2)C1` [Example 12-6, 4-(4-chloro-1H-indol-7-yl)-7,7-dimethyl-2-(2-(2-propenoyl)-2,6-diazaspiro[3.4]octan-6-yl)-7,8-dihydro-5H-pyrano[4,3-b]pyridine-3-carbonitrile] are within 1.5-fold of each other in IC50: 186 nM for the first, 213 nM for the second.

Compared with `C=CC(=O)N1CC2(CCN(c3nc4c(c(-c5c(C)ccc6cnn(C)c56)c3C#N)CC[C@H]3C[C@@H]43)C2)C1` (single isomer, unassigned) [Example 13-135, (6a,7a)-4-(1,6-dimethyl-1H-indazol-7-yl)-2-(2-(2-propenoyl)-2,6-diazaspiro[3.4]octan-6-yl)-6,6a,7,7a-tetrahydro-5H-cyclopropa[h]quinoline-3-carbonitrile], `C=CC(=O)N1CC2(CCN(c3nc4c(c(-c5c(C)ccc6cnn(C)c56)c3C#N)COC(C3CC3)C4)C2)C1` [Example 13-111, (7R)-7-cyclopropyl-4-(1,6-dimethyl-1H-indazol-7-yl)-2-(2-(2-propenoyl)-2,6-diazaspiro[3.4]octan-6-yl)-7,8-dihydro-5H-pyrano[4,3-b]pyridine-3-carbonitrile|(7S)-7-cyclopropyl-4-(1,6-dimethyl-1H-indazol-7-yl)-2-(2-(2-propenoyl)-2,6-diazaspiro[3.4]octan-6-yl)-7,8-dihydro-5H-pyrano[4,3-b]pyridine-3-carbonitrile] is 210-fold lower in IC50: 62500 nM for the first, 294 nM for the second.

Going from `C=CC(=O)N1CC2(CCN(c3nc4c(c(-c5cc(Cl)cc6ccn(C)c56)c3C#N)COC(C)(C)C4)C2)C1` (single isomer, unassigned) [Example 12-10, (M)-4-(5-chloro-1-methyl-1H-indol-7-yl)-7,7-dimethyl-2-(2-(2-propenoyl)-2,6-diazaspiro[3.4]octan-6-yl)-7,8-dihydro-5H-pyrano[4,3-b]pyridine-3-carbonitrile] to `C=CC(=O)N1CC2(CCN(c3nc4c(c(-c5c(Cl)ccc6ccn(C)c56)c3C#N)COC(C)(C)C4)C2)C1` [Example 12-14, 4-(6-chloro-1-methyl-1H-indol-7-yl)-7,7-dimethyl-2-(2-(2-propenoyl)-2,6-diazaspiro[3.4]octan-6-yl)-7,8-dihydro-5H-pyrano[4,3-b]pyridine-3-carbonitrile], the IC50 falls from 7420 nM to 246 nM (30-fold).

`C=CC(=O)N1CC2(CCN(c3nc4c(c(-c5cc(O)ccc5C)c3C#N)[C@H]3CC[C@@H]4C3)C2)C1` (single isomer, unassigned) [Example 14-12] and `C=CC(=O)N1CC2(CCN(c3nc4c(c(-c5cc(O)ccc5Cl)c3C#N)C[C@H]3C[C@@H]4C3(C)C)C2)C1` (single isomer, unassigned) [Example 2-75] are within 1.5-fold of each other in IC50: 422 nM for the first, 454 nM for the second.

Going from `C=CC(=O)N1CC2(CCN(c3nc4c(c(-c5c(C)ccc6cnn(C)c56)c3C#N)C[C@H]3C[C@@H]4C3)[C@H]2C)C1` [Example 13-30, (1S,9R)-6-(1,6-dimethyl-1H-indazol-7-yl)-4-((5S)-5-methyl-2-(2-propenoyl)-2,6-diazaspiro[3.4]octan-6-yl)-3-azatricyclo[7.1.1.0^2,7]undeca-2,4,6-triene-5-carbonitrile] to `C=CC(=O)N1CC2(CCN(c3nc4c(c(-c5cc(O)ccc5C)c3C#N)[C@H]3CC[C@@H]4C3)C2)C1` (single isomer, unassigned) [Example 14-14], the IC50 falls from 715 nM to 108 nM (6.6-fold). The second is the more potent here.

Going from `C=CC(=O)N1CC2(CCN(c3nc4ccccc4c(-c4c(C)ccc5[nH]nc(Cl)c45)c3C#N)C2)C1` [Example 14-3, 4-(3-chloro-5-methyl-1H-indazol-4-yl)-2-(2-(2-propenoyl)-2,6-diazaspiro[3.4]octan-6-yl)-3-quinolinecarbonitrile] to `C=CC(=O)N1CC2(CCN(c3nc4c(c(-c5cc(F)c(O)c6ccccc56)c3C#N)COC(C)(C)C4)C2)C1` [Example 12-28, 4-(3-fluoro-4-hydroxy-1-naphthalenyl)-7,7-dimethyl-2-(2-(2-propenoyl)-2,6-diazaspiro[3.4]octan-6-yl)-7,8-dihydro-5H-pyrano[4,3-b]pyridine-3-carbonitrile], the IC50 falls from 588 nM to 263 nM (2.2-fold).

First: C=CC(=O)N1CC2(CCN(c3nc4c(c(-c5cc(O)ccc5C)c3C#N)[C@H]3CC[C@@H]4C3)C2)C1 (single isomer, unassigned) [Example 14-13]
Second: C=CC(=O)N1CC2(CCN(c3nc4c(c(-c5cc(CO)ccc5Cl)c3C#N)C[C@H]3C[C@@H]4C3(C)C)C2)C1 [Example 2-65, (1R,9R)-6-(2-chloro-5-(hydroxymethyl)phenyl)-10,10-dimethyl-4-(2-(2-propenoyl)-2,6-diazaspiro[3.4]octan-6-yl)-3-azatricyclo[7.1.1.0^2,7]undeca-2,4,6-triene-5-carbonitrile]
The IC50 of the first is 3.9-fold higher: 2840 nM for the first, 735 nM for the second. The second is the more potent here.
